Assay results taken from ChEMBL document CHEMBL4837244 (ACS Med Chem Lett, 2021).

Columns and labels:
Assay type in all cases: ADME, Microsome
[1] = Metabolic stability in human liver microsomes assessed as parent compound remaining at 0.1 uM in presence of NADPH by LC-MS/MS analysis
[2] = Metabolic stability in mouse liver microsomes assessed as parent compound remaining at 0.1 uM in presence of NADPH by LC-MS/MS analysis; details: read-out: Stabilty
[3] = Metabolic stability in rat liver microsomes assessed as parent compound remaining at 0.1 uM in presence of NADPH by LC-MS/MS analysis; details: read-out: Stabilty

Structure (SMILES) | Stabilty [1] | remaining at 0.1 µM [2] [%] | remaining at 0.1 µM [3] [%]
CCOC(=O)c1ccc(CCN2CCC(Nc3nc4ccccc4n3Cc3ccc(C#N)cc3)CC2)cc1 | Unstable | < 45 | < 45
N#Cc1ccc(CCN2CCC(Nc3nc4ccccc4n3Cc3ccc(C#N)c(F)c3)CC2)cc1 | Unstable | < 45 | < 45

Now from value to compound:

Stabilty [1] | remaining at 0.1 µM [2] [%] | remaining at 0.1 µM [3] [%] | Structure (SMILES)
Unstable | < 45 | < 45 | O=C(c1ccc(CCN2CCC(Nc3nc4ccccc4n3Cc3ccc(F)cc3)CC2)cc1)N1CCNCC1
Unstable | < 45 | < 45 | N#Cc1ccc(CCN2CCC(Nc3nc4ccccc4n3Cc3ccc(C(F)(F)F)nc3)CC2)cc1
Unstable | < 45 | < 45 | N#Cc1ccc(Cn2c(NC3CCN(CCc4ccc(C(F)(F)F)cc4)CC3)nc3ccccc32)cc1
